From publication PMC10675777, “Experimental Evaluation of the Hypersensitivity Reactions of a New Glycopeptide Antibiotic Flavancin in Animal Models” (Pharmaceuticals, 2023)
Where a name gives a salt, the structure may show the parent alone. Read-outs that look alike come from different tables or passages of the source.

Assays:
concanavalin A = details: for The Mass of the Hind Leg Foot, Con A, Me, Mean ± SD / The Mass of the Hind Leg Foot, Saline, Mc, Mean ± SD: female CBA mice, n = 10, weighed 1 h later; for The Mass of the Hind Leg Foot, Con A, Me, Mean ± SD: Con A 0.5% into pad 1 h post-injection; for The Mass of the Hind Leg Foot, Saline, Mc, Mean ± SD: saline into contralateral pad; for RI (reaction index to concanavalin A) / Relative Increase Me Over Mc: mice; for Relative Increase Me Over Mc: (Me − Mc)/Mc × 100%
Protocol: Its administration causes nonimmune activation of histamine release and inflammatory edema at the injection site.
The experiment was carried out in accordance with «Guidelines on the assessment of allergic properties of drugs» [30]. Healthy female CBA mice weighing 20–24 g were divided into five groups, in cages of 10. […] 10 mL/kg of 5% glucose solution was administered to the animals of control group. One hour post-injection, 0.5% Con A in isotonic sodium chloride solution (0.01 mL/10 g body mass) was injected into the pad of the hind legs and the same volume of isotonic solution of sodium chloride was injected into the contralateral extremity of mice in the experimental and control groups. One hour later, the mice were euthanized. The hind legs were amputated at the hock joint and weighed. Relative increase Me over Mc in each group was calculated using the formula (Me − Mc)/Mc × 100%, where Me is the mass of the foot injected with Con A and Mc is the mass of the foot injected with saline solution. The RI of the group of animals receiving the drug, exceeding 20%, is considered significant and indicates an inflammatory reaction to concanavalin A.

guinea pigs [1] = experiment: General anaphylaxis reaction (anaphylactic shock)
Protocol: In order to determine the anaphylactogenic properties of flavancin, we selected two technically simple and easily reproducible tests: general anaphylaxis reaction and active skin anaphylaxis.
Adult guinea pigs weighing 300–350 g were randomized into three groups (n = 10). […] These doses were determined based on the effectiveness in mice (ED100), with adjustments made using the coefficient of the animals’ body surface [28]. Saline was used as the control in the experiment. As for the reference agent, cattle serum was employed, with a dose of 0.1 mL for sensitizing doses and 0.5 mL for the resolving doses. The sensitizing doses were following a scheme: the first injection was given subcutaneously, while the subsequent two injections were administrated intramuscularly, with a 48 h interval between each injection. The resolving dose was administered intracardially 21 days after the last day of sensitization.

guinea pigs [2] = details: Evans blue
Protocol: In the study of active skin anaphylaxis, the sensitizing doses of flavancin were administered following the same scheme as described previously. The resolving dose, which consisted of a 0.1% solution of the dosage form of the drug in a 5% glucose solution with a volume of 0.05 mL per guinea pig, was administered intradermally 21 days after the last day of sensitization into a previously […] area of the flank skin. After 30 min, both the experimental and control groups of animals were intracardially injected with 0.5 mL of 1% Evans blue solution. Thirty minutes later, the animals were euthanized using ether anesthesia. The skin where the drug was intradermally administrated was then separated, and the diameter of the blue spot was measured and recorded. The collected quantitative data were statistically analyzed using a significance level of p < 0.05.

histamine = experiment: Histamine in blood plasma after intravenous administration (Histamine-ELISA); details: for Histamine Level in plasma: female CBA mice, n = 10, single i.v., equitoxic doses (~MTD): vancomycin 300 mg/kg, flavancin 100 mg/kg, ELISA
Protocol: The amount of histamine in the blood plasma of mice was detected 0.5, 1.5 and 3 min after a single intravenous administration of drugs.
Female CBA mice weighing 18–20 g were divided into groups of 10 animals each. Flavancin was dissolved in 5% glucose and administrated via the tail vein to the mice at a dose equivalent to one TD (2.5 mg/kg) or MTD (100 mg/kg). […] Untreated animals were used as the control group.
The animals were euthanized after 0.5, 1 and 1.5 min in an experiment using equiterapeutic doses and 0.5, 1.5 and 3 min for an experiment with the use of equitoxic doses, and the blood samples were collected after the drug administration. Next, 500 µL of whole blood, which had been drawn into 10 µL of heparin (30–50 IU) was centrifuged for 20 min at 2000 rpm. To perform the histamine analyses, 20 µL of plasma was mixed with dilutions of saline at ratios of 1:10 and 1:20. The amount of histamine was determined using an automatic biochemical and enzyme immunoassay analyzer (ChemWell, Awareness Technology, Inc., Palm City, FL, USA). The histamine detection was performed using the Histamine-ELISA reagent kit (Tecan Group Company, Männedorf, Switzerland).

[3] = rat, in vivo, iv, 6.25 mg/kg
Protocol: Experimental animals were divided into groups of six at each time point. Flavancin was administered intravenously into the tail vein at a single dose of 6.25 mg/kg (5 TD). Control rats were injected with glucose solution in the same volume. Blood was collected 5, 15, 30 min and 1 h after injection into heparinized plastic tubes. Blood samples were centrifuged for 20 min at 1500 rpm. The supernatant was poured into tubes and stored at −20 °C until chromatographic analysis. Quantitative determination of flavancin in blood samples was carried out by high-performance liquid chromatography method (HPLC) with fluorimetric detection.
The method is based on the chromatography of specially prepared samples using a high-performance liquid chromatograph with a fluorescence detector and a reversed-phase column.
Gradient separation was performed at 40 °C on a column Jupiter C18 (250 mm × 4.6 mm, particle size 5 microns; Security Guard Cartridge, Phenomenex, Torrance, CA, USA). […] Detection was carried out using a fluorescence detector (Waters 2475, Waters Associates, Framingham, MA, USA) (excitation—240 nm, emission—330 nm). […] The lower limit of the quantitative determination of flavancin was 0.8 µg/mL. […]
Eight hundred µL of supernatant was replaced in 1.5 mL Eppendorf plastic tubes. […] The supernatant was analyzed by HPLC. […]

[4] = parameters: method as in PMID 1693055; details: cited from earlier work
patients = patients treated with vancomycin; cited from earlier work
Protocol: This reaction is typically associated with intravenous administration of doses exceeding 1000 mg and administrated at a rate of less than 60 min [5]. […] More recently, the mechanism behind some IgE-independent reactions, previously referred to as pseudo ...

For CN[C@H](CC(C)C)C(=O)N[C@H]1C(=O)N[C@@H](CC(N)=O)C(=O)N[C@H]2C(=O)N[C@H]3C(=O)N[C@H](C(=O)N[C@H](C(=O)NCCNCc4ccccc4F)c4cc(O)cc(O)c4-c4cc3ccc4O)[C@H](O[C@H]3C[C@](C)(N)[C@@H](O)[C@H](C)O3)c3ccc(cc3)Oc3cc2cc(c3O[C@@H]2O[C@H](CO)[C@@H](O)[C@H](O)[C@H]2O[C@H]2C[C@](C)(N)[C@@H](O)[C@H](C)O2)Oc2ccc(cc2Cl)[C@H]1O [flavancin, N-(2((2-fluorobenzyl)amino)ethyl)amide of eremomycin hydrochloride], the “The Mass of the Hind Leg Foot, Con A, Me, Mean ± SD” value (“The Mass … Me, Mean ± SD” below) (concanavalin A; drug i.v. at MTD) was 151.5 ± 3.0 mg, the “The Mass of the Hind Leg Foot, Saline, Mc, Mean ± SD” value (from here on “The Mass … Mc, Mean ± SD”) (concanavalin A; drug i.v. at MTD) was 139.3 ± 2.9 mg and the “The Mass … Me, Mean ± SD” value (concanavalin A; drug i.v. at TD) was 154.3 ± 2.1 mg. The “The Mass … Mc, Mean ± SD” value (concanavalin A; drug i.v. at TD) was 142.1 ± 2.0 mg, the “RI (reaction index to concanavalin A)” value (concanavalin A; both doses studied (TD and MTD), below 20% means no pseudoallergic reaction) was “less than 20%” and the “Relative Increase Me Over Mc” value (concanavalin A; drug i.v. at MTD) was 8.8%. The “RI (reaction index to concanavalin A)” value (concanavalin A; drug i.v. at MTD, RI exceeding 20% is significant) was 7.3%, the “Relative Increase Me Over Mc” value (concanavalin A; drug i.v. at TD) was 8.5% and the “RI (reaction index to concanavalin A)” value (concanavalin A; drug i.v. at TD, RI exceeding 20% is significant) was 3.7%. The “Effect (general anaphylaxis reaction, anaphylactic shock)” value (“Effect” below) (guinea pigs [1]; n = 10, sensitized with saline solution 1.0 mL x3, resolving flavancin 3.0 mg/kg intracardially) was “no”, the “Effect” value (guinea pigs [1]; n = 10, sensitizing 0.5 mg/kg (1TD) subcutaneous then twice intramuscularly, 48 h interval, resolving 3.0 mg/kg (6TD) intracardially 21 days after sensitization) was “does not induce anaphylactic shock and no” and the “Effect” value (guinea pigs [1]; n = 10, sensitizing 1.5 mg/kg (3TD) subcutaneous then twice intramuscularly, 48 h interval, resolving 3.0 mg/kg (6TD) intracardially 21 days after sensitization) was “does not induce anaphylactic shock and no”. For the same compound, the “Blue Spot Diameter” value (guinea pigs [2]; sensitizing 0.5 mg/kg x3, resolving 0.05 mL per pig of 0.1% solution 21 days after sensitization) was 2.3 ± 0.6 cm, the “Blue Spot Diameter” value (guinea pigs [2]; sensitizing 1.5 mg/kg x3, resolving 0.05 mL per pig of 0.1% solution 21 days after sensitization) was 2.4 ± 0.5 cm and the “Histamine Level in plasma” value (histamine; 0.5 min) was 549.9 ± 92.6 µg/L. For the same compound, the “Histamine Level in plasma” value (histamine; 1.5 min) was 796.2 ± 56.3 µg/L, the “Histamine Level in plasma” value (histamine; 3 min) was 297.7 ± 54.9 µg/L and the “Histamine level in the blood compared to vancomycin” value (histamine; mice, equivalent (therapeutic) dose, after 30 s) was “three times lower”. For the same compound, the level at 1 h [3] was 5000 ng/mL.
In the case of vancomycin [reference compound], the “Vancomycin concentration in the blood after infusion” value ([4]; 60-min intravenous infusion at a therapeutic dose, before the decrease) is listed as 51.1 ± 9.2, the “Vancomycin concentration in the blood 1 h after infusion” value ([4]; 1 h after a 60-min intravenous infusion at a therapeutic dose) is listed as 24.9 ± 2.9 and the “The Mass … Me, Mean ± SD” value (concanavalin A; drug i.v. at MTD) is listed as 149.4 ± 3.0 mg. The “The Mass … Mc, Mean ± SD” value (concanavalin A; drug i.v. at MTD) was 131.8 ± 3.6 mg, the “The Mass … Me, Mean ± SD” value (concanavalin A; drug i.v. at TD) was 158.1 ± 3.8 mg and the “The Mass … Mc, Mean ± SD” value (concanavalin A; drug i.v. at TD) was 140.4 ± 2.3 mg. For the same compound, the “Occurrence of Red Man Syndrome (non-IgE-mediated hypersensitivity)” value (patients) was 4–47%.
